Here are results for one compound from patent US8431565B2 (priority 2007, dated 2013).

For assay [1], the system named is rats. As to the kind of experiment: Spinal nerve ligation (SNL) model of neuropathic pain. The following applies: rat; oral 3, 10 and 30 mg/kg; FIG. 4. In kind it is in vivo. The method, then:
The SNL model (Kim and Chung 1992) was used to induce chronic neuropathic pain in rats. The rats were anesthetized with isoflurane, the left L5 transverse process was removed, and the L5 and L6 spinal nerves were tightly ligated with 6-0 silk suture. The wound was then closed with internal sutures and external staples. Following at least seven days post SNL, baseline, post-injury and post-treatment values for non-noxious mechanical sensitivity were evaluated using eight Semmes-Weinstein filaments (Stoelting, Wood Dale, Ill., USA) with varying stiffness (0.4, 0.7, 1.2, 2.0, 3.6, 5.5, 8.5, and 15 g) according to the up-down method (Chaplan et al. 1994). Animals were placed on a perforated metallic platform and allowed to acclimate to their surroundings for a minimum of thirty minutes before testing. The mean and standard error of the mean (SEM) were determined for the injured paw in each treatment group. Since this stimulus is normally not considered painful, significant injury-induced increases in responsiveness in this test are interpreted as a measure of mechanical allodynia. The dose which elicited 50% attenuation of mechanical hypersensitivity (ED50) was determined using linear regression analysis. Results obtained after oral administration of compound 317 at 3, 10 and 30 mg/kg and with compound 366 at 1, 3 and 10 mg/kg are shown in FIG. 4.

Assay [2] relates to rats. In words: Carrageenan model of acute inflammation. The conditions noted are these: rat; sub-cutaneous 3, 10 and 30 mg/kg; FIG. 3A. In kind it is in vivo.
In the next assay the test system is Male ICR mice. As to the kind of experiment: Inhibition of acetic acid-induced writhing. The conditions noted are these: subcutaneous 3, 10 and 30 mg/kg, FIG. 2. It is filed as in vivo, mouse. From the text: 12: 525-562; Ramabadran and Bansinath (1986) Pharm. Res. 3: 263-270]. Intraperitoneal administration of dilute acetic acid solution causes a writhing behavior in mice. A writhe is defined as a contraction of the abdominal muscles accompanied by an extension of the forelimbs and elongation of the body. The number of writhes observed in the presence and absence of test compounds is counted to determine the analgesic activity of the compounds.
Male ICR mice, 20-40 grams in weight, were weighed and placed in individual observation chambers (usually a 4000 ml beaker) with a fine layer of rodent bedding at the bottom. To determine the activity and potency of test compounds, different doses of the compound solution or vehicle were injected subcutaneously in the back of the neck 30 minutes prior to administration of acetic acid solution. After administration of the compound or vehicle control, mice were returned to their individual observation chambers awaiting the intraperitoneal administration of acetic acid solution. Thirty minutes later, 10 ml/kg of a 0.6% (v/v) acetic acid solution was then injected into the right lower quadrant of the abdomen. […] The number of writhes was counted over a 15-min period starting from the time of acetic acid injection. Raw data were analyzed using a one-way ANOVA followed by Dunnett's post-tests. […]

The structures appear in SMILES notation.

Regarding `CNC(=O)[C@@H](NC(=O)c1nc(-c2ccccc2)n2c1CN(C)CCC2)C(C)(C)C` [Compound 317, (S)—N-(3,3-dimethyl-1-(methylamino)-1-oxobutan-2-yl)-8-methyl-3-phenyl-6,7,8,9-tetrahydro-5H-imidazo[1,5-a][1,4]diazepine-1-carboxamide], the “response in the neuropathic pain model” value with rats [1] was “dose response in the neuropathic pain model”. For the same compound, in the assay with rats [2], the “inhibition of carrageenan-induced hyper-sensitivity” value is recorded as “dose response in the inhibition of carrageenan-induced hyper-sensitivity”. In addition, in the assay with Male ICR mice, the “inhibition of acetic acid-induced writhing” value is recorded as “dose response in the inhibition of acetic acid-induced writhing”.
